Source: patent US10155021B2, “Antimicrobial 4-oxoquinolizines” (Emergent Product Development Gaithersburg Inc., priority 2011, dated 2018)
≈ marks a conversion by molar mass, not a printed value. Where two headings read alike, the source gives them in different places.

Key:
[1] = tested on: S. aureus BAA-1556 (USA300-Type MRSA, FQ-R); experiment: MIC, selected panel of Gram-positive and Gram-negative strains (Example 5); format: cell-based, Staphylococcus aureus
[2] = tested on: S. aureus ATCC 25923; experiment: as above; format: cell-based; conditions: Staphylococcus aureus, ATCC25923, read-out: MIC S. aureus ATCC 25923
[3] = tested on: S. aureus ATCC 43300 (MRSA, FQ-S); experiment: as above; format: cell-based, Staphylococcus aureus
[4] = tested on: B. thailandensis E264; experiment: microbe, parasite or virus in culture; format: cell-based, Burkholderia thailandensis; conditions: for MIC: Burkholderia thailandensis, E264, read-out: MIC B. thailandensis E264
[5] = tested on: P. aeruginosa ATCC 27853; experiment: MIC, selected panel of Gram-positive and Gram-negative strains (Example 5); format: cell-based
[6] = tested on: E. coli ATCC 25922; experiment: as above; format: cell-based, Escherichia coli
[7] = tested on: A. baumannii ATCC 19606; experiment: as above; format: cell-based, Acinetobacter baumannii; conditions: for MIC: Acinetobacter baumannii, ATCC19606, read-out: MIC A. baumannii ATCC 19606
[8] = Staphylococcus aureus, read-out: MIC S. aureus BAA-1556 (USA300-Type MRSA, FQ-R)
[9] = Staphylococcus aureus, read-out: MIC S. aureus ATCC 43300 (MRSA, FQ-S)
[10] = Pseudomonas aeruginosa, ATCC27853, read-out: MIC P. aeruginosa ATCC 27853
[11] = Escherichia coli, ATCC25922, read-out: MIC E. coli ATCC 25922
[12] = Staphylococcus aureus; read-out: MIC S. aureus BAA-1556 (USA300-Type MRSA, FQ-R)

In the case of `Cc1c(-c2ccc(O)c(F)c2)ccn2c(=O)c(C(=O)[O-])cc(C3CC3)c12.[K+]` [Compound 70K salt, potassium 8-(3-fluoro-4-hydroxyphenyl)-1-cyclopropyl-9-methyl-4-oxo-4H-quinolizine-3-carboxylate], the MIC [1, 8] is reported as 0.064 µg/mL, the MIC [2] is reported as no more than 0.004 µg/mL and the MIC [3, 9] is reported as no more than 0.004 µg/mL. It also gave an MIC [4] of 0.25 µg/mL, an MIC [5, 10] of 1 µg/mL and an MIC [6, 11] of 0.032 µg/mL.
Work on `CC(=O)NCc1ccc(-c2ccn3c(=O)c(C(=O)[O-])cc(C4CC4)c3c2C)cc1.[K+]` [Compound 64K salt, potassium 8-(4-(Acetamidomethyl)phenyl)-1-cyclopropyl-9-methyl-4-oxo-4H-quinolizine-3-carboxylate] yielded an MIC [1, 8] of 0.5 µg/mL, an MIC [2] of 0.032 µg/mL and an MIC [3, 9] of 0.032 µg/mL. For the same molecule, the MIC [4] was 2 µg/mL, the MIC [7] was 0.5 µg/mL and the MIC [5, 10] was 8 µg/mL.
Work on `O=C(O)c1cn(C2CC2)c2cc(N3CCNCC3)c(F)cc2c1=O` [Ciprofloxacin, reference compound] yielded an MIC [1, 12] greater than 8 µg/mL.
`Cc1cn2c(=O)c(C(=O)[O-])cc(C3CC3)c2c(C)c1-c1ccc2[nH]ncc2c1.[K+]` [Compound 88K salt, potassium 8-(1H-indazol-5-yl)-1-cyclopropyl-7,9-dimethyl-4-oxo-4H-quinolizine-3-carboxylate] showed an MIC [1, 8] of 0.5 µg/mL, an MIC [2] of 0.008 µg/mL and an MIC [3, 9] of 0.008 µg/mL. The MIC [4] was 1 µg/mL, the MIC [7] was 0.5 µg/mL and the MIC [5, 10] was 4 µg/mL.
`Cc1c(-c2ccc(O)cc2)c(F)cn2c(=O)c(C(=O)[O-])cc(C3CC3)c12.[K+]` [Compound 61K salt, potassium 8-(4-hydroxyphenyl)-1-cyclopropyl-7-fluoro-9-methyl-4-oxo-4H-quinolizine-3-carboxylate] showed an MIC [1, 8] of 0.064 µg/mL, an MIC [4] of 0.5 µg/mL and an MIC [5, 10] of 2 µg/mL. The MIC [6, 11] was 0.032 µg/mL.
Work on `Cc1c(-c2ccc3sc(N)nc3c2)ccn2c(=O)c(C(=O)[O-])cc(C3CC3)c12.[K+]` [Compound 73K salt, potassium 8-(2-aminobenzo[d]thiazol-5-yl)-1-cyclopropyl-9-methyl-4-oxo-4H-quinolizine-3-carboxylate] yielded an MIC [1, 8] of 0.064 µg/mL, an MIC [2] of no more than 0.004 µg/mL and an MIC [3, 9] of no more than 0.004 µg/mL. For the same molecule, the MIC [4] was 0.5 µg/mL, the MIC [5, 10] was 2 µg/mL and the MIC [6, 11] was 0.032 µg/mL.
Molecule `Cc1cn2c(=O)c(C(=O)[O-])cc(C3CC3)c2c(C)c1-c1ccc(N)nc1.[K+]` [Compound 87K salt, potassium 8-(6-amino-pyridin-3-yl)-1-cyclopropyl-7,9-dimethyl-4-oxo-4H-quinolizine-3-carboxylate] has an MIC [1, 8] of 8 µg/mL, an MIC [2] of 0.064 µg/mL and an MIC [3, 9] of 0.064 µg/mL. The MIC [4] was 4 µg/mL, the MIC [7] was 0.25 µg/mL and the MIC [5, 10] was 8 µg/mL.
Work on `Cc1c(-c2ccc(CN)s2)ccn2c(=O)c(C(=O)[O-])cc(C3CC3)c12.[K+]` [Compound 13K salt, potassium 8-(5-(aminomethyl)thiophen-2-yl)-1-cyclopropyl-9-methyl-4-oxo-4H-quinolizine-3-carboxylate] yielded an MIC [1, 8] of 0.5 µg/mL, an MIC [2] of 0.016 µg/mL and an MIC [3, 9] of 0.016 µg/mL. It also gave an MIC [4] of 0.5 µg/mL, an MIC [5, 10] of 1 µg/mL and an MIC [6, 11] of 0.016 µg/mL.
With `Cc1c(-c2ccc3c(c2)CCN3)ccn2c(=O)c(C(=O)[O-])cc(C3CC3)c12.[K+]` [Compound 77K salt, potassium 8-(indolin-5-yl)-1-cyclopropyl-9-methyl-4-oxo-4H-quinolizine-3-carboxylate] the MIC [1, 8] was 0.5 µg/mL, the MIC [2] was 0.016 µg/mL and the MIC [3, 9] was 0.016 µg/mL. For the same molecule, the MIC [4] was 1 µg/mL, the MIC [7] was 0.25 µg/mL and the MIC [5, 10] was 4 µg/mL.
`Cc1c(-c2ccc(N)nc2)c(F)cn2c(=O)c(C(=O)[O-])cc(C3CC3)c12.[K+]` [Compound 60K salt, potassium 8-(6-aminopyridin-3-yl)-1-cyclopropyl-7-fluoro-9-methyl-4-oxo-4H-quinolizine-3-carboxylate] was tested, and the MIC [1, 8] was 0.125 µg/mL, the MIC [2] was 0.008 µg/mL and the MIC [4] was 0.5 µg/mL. The MIC [7] was 0.064 µg/mL, the MIC [5, 10] was 2 µg/mL and the MIC [6, 11] was 0.032 µg/mL.
In the case of `Cc1cc(-c2ccn3c(=O)c(C(=O)[O-])cc(C4CC4)c3c2C)cnc1N.[K+]` [Compound 79K salt, potassium 8-(6-amino-5-methylpyridin-3-yl)-1-cyclopropyl-9-methyl-4-oxo-4H-quinolizine-3-carboxylate], the MIC [2] is reported as no more than 0.004 µg/mL, the MIC [3, 9] is reported as no more than 0.004 µg/mL and the MIC [4] is reported as 0.5 µg/mL. It also gave an MIC [7] of 0.064 µg/mL, an MIC [5, 10] of 2 µg/mL and an MIC [6, 11] of 0.016 µg/mL.
`Cc1c(-c2ccc(CN)cc2)c(F)cn2c(=O)c(C(=O)[O-])cc(C3CC3)c12.[K+]` [Compound 6K salt] was tested, and the “MIC S. aureus BAA-1556 (USA300-Type MRSA, FQ-R)” value [1] was 1 µg/mL, the “MIC S. aureus ATCC 43300 (MRSA, FQ-S)” value [3] was 0,064 μg/mL and the “MIC B. thailandensis E264” value [4] was 4 µg/mL. For the same molecule, the “MIC A. baumannii ATCC 19606” value [7] was 1 µg/mL and the “MIC E. coli ATCC 25922” value [6] was 0.064 to 0.125 µg/mL.
`Cc1c(-c2cccc(O)c2)ccn2c(=O)c(C(=O)[O-])cc(C3CC3)c12.[K+]` [Compound 56K salt, potassium 1-cyclopropyl-8-(3-hydroxyphenyl)-9-methyl-4-oxo-4H-quinolizine-3-carboxylate] was tested, and the MIC [2] was 0.008 µg/mL, the MIC [3, 9] was 0.008 µg/mL and the MIC [4] was 0.25 µg/mL. For the same molecule, the MIC [5, 10] was 2 µg/mL and the MIC [6, 11] was 0.032 µg/mL.
`Cc1c(-c2ccc3[nH]nc(C4CC4)c3c2)ccn2c(=O)c(C(=O)[O-])cc(C3CC3)c12.[K+]` [Compound 71K salt, potassium 8-(3-cyclopropyl-1H-indazol-5-yl)-1-cyclopropyl-9-methyl-4-oxo-4H-quinolizine-3-carboxylate] showed an MIC [2] of no more than 0.004 µg/mL, an MIC [3, 9] of no more than 0.004 µg/mL and an MIC [4] of 2 µg/mL. It also gave an MIC [7] of 0.5 µg/mL and an MIC [5, 10] greater than 8 µg/mL.
Work on `CNc1ccc(-c2ccn3c(=O)c(C(=O)[O-])cc(C4CC4)c3c2C)cn1.[K+]` [Compound 78K salt, potassium 8-(6-(methylamino)pyridin-3-yl)-1-cyclopropyl-9-methyl-4-oxo-4H-quinolizine-3-carboxylate] yielded an MIC [2] of 0.008 µg/mL, an MIC [3, 9] of 0.008 µg/mL and an MIC [4] of 0.5 µg/mL. For the same molecule, the MIC [5, 10] was 2 µg/mL and the MIC [6, 11] was 0.064 to 0.125 µg/mL.
Work on `Cc1c(-c2ccc3c(cnn3C)c2)ccn2c(=O)c(C(=O)[O-])cc(C3CC3)c12.[K+]` [Compound 81K salt, potassium 8-(1-methyl-1H-indazol-5-yl)-1-cyclopropyl-9-methyl-4-oxo-4H-quinolizine-3-carboxylate] yielded an MIC [1, 8] of 0.064 µg/mL, an MIC [2] of no more than 0.004 µg/mL and an MIC [3, 9] of no more than 0.004 µg/mL. It also gave an MIC [4] of 0.25 µg/mL, an MIC [5, 10] of 2 µg/mL and an MIC [6, 11] of 0.064 µg/mL.
`COc1c(-c2ccc3[nH]ncc3c2)ccn2c(=O)c(C(=O)[O-])cc(C3CC3)c12.[K+]` [Compound 90K salt, potassium 8-(1H-indazol-5-yl)-1-cyclopropyl-9-methoxy-4-oxo-4H-quinolizine-3-carboxylate] showed an MIC [1, 8] of 0.25 µg/mL, an MIC [2] of 0.008 µg/mL and an MIC [3, 9] of 0.008 µg/mL. For the same molecule, the MIC [4] was 2 µg/mL, the MIC [7] was 0.5 µg/mL and the MIC [5, 10] was 4 µg/mL.
In the case of `Cc1n[nH]c2ccc(-c3ccn4c(=O)c(C(=O)[O-])cc(C5CC5)c4c3C)cc12.[K+]` [Compound 80K salt, potassium 8-(3-methyl-1H-indazol-5-yl)-1-cyclopropyl-9-methyl-4-oxo-4H-quinolizine-3-carboxylate], the MIC [2] is reported as no more than 0.004 µg/mL, the MIC [3, 9] is reported as no more than 0.004 µg/mL and the MIC [4] is reported as 1 µg/mL. The MIC [7] was 0.25 µg/mL, the MIC [5, 10] was 4 µg/mL and the MIC [6, 11] was 0.064 µg/mL.
In the case of `COc1c(-c2ccc(N)nc2)ccn2c(=O)c(C(=O)[O-])cc(C3CC3)c12.[K+]` [Compound 89K salt, potassium 8-(6-amino-pyridin-3-yl)-1-cyclopropyl-9-methoxy-4-oxo-4H-quinolizine-3-carboxylate], the MIC [1, 8] is reported as 2 µg/mL, the MIC [2] is reported as 0.032 µg/mL and the MIC [3, 9] is reported as 0.032 µg/mL. The MIC [4] was 4 µg/mL, the MIC [7] was 0.5 µg/mL and the MIC [5, 10] was 8 µg/mL.
With `COc1cc(-c2ccn3c(=O)c(C(=O)[O-])cc(C4CC4)c3c2C)ccc1O.[K+]` [Compound 66K salt, potassium 8-(4-hydroxy-3-methoxyphenyl)-1-cyclopropyl-9-methyl-4-oxo-4H-quinolizine-3-carboxylate] the MIC [1, 8] was 0.25 µg/mL, the MIC [2] was 0.008 µg/mL and the MIC [3, 9] was 0.008 µg/mL. The MIC [4] was 1 µg/mL, the MIC [7] was 0.5 µg/mL and the MIC [5, 10] was 4 µg/mL.
Work on `Cc1c(-c2ccc(N3CCNCC3)nc2)ccn2c(=O)c(C(=O)[O-])cc(C3CC3)c12.[K+]` [Compound 84K salt, potassium 8-(6-(piperazin-1-yl)pyridin-3-yl)-1-cyclopropyl-9-methyl-4-oxo-4H-quinolizine-3-carboxylate] yielded an MIC [1, 8] of 2 µg/mL, an MIC [4] of 8 µg/mL and an MIC [7] of 2 µg/mL. It also gave an MIC [5, 10] of 8 µg/mL and an MIC [6, 11] of 0.125 to 0.25 µg/mL.
Work on `CNc1ccc(-c2ccn3c(=O)c(C(=O)[O-])cc(C4CC4)c3c2C)cc1C.[K+]` [Compound 69K salt, potassium 8-(3-methyl-4-(methylamino)phenyl)-1-cyclopropyl-9-methyl-4-oxo-4H-quinolizine-3-carboxylate] yielded an MIC [1, 8] of 0.25 µg/mL, an MIC [2] of no more than 0.004 µg/mL and an MIC [3, 9] of no more than 0.004 µg/mL. For the same molecule, the MIC [4] was 1 µg/mL, the MIC [7] was 0.25 to 0.5 µg/mL and the MIC [5, 10] was 4 µg/mL.
Molecule `C[C@H]1c2cccc(O)c2C(=O)C2=C(O)[C@]3(O)C(=O)C(C(N)=O)=C(O)[C@@H](N(C)C)[C@@H]3[C@@H](O)[C@@H]21` [Doxycycline, reference compound] has an MIC [1, 12] of 4 µg/mL (≈ 9 µM), an MIC ([3]; Staphylococcus aureus; read-out: MIC S. aureus ATCC 43300 (MRSA, FQ-S)) of 0.25 µg/mL (≈ 0.563 µM) and an MIC [4] of 2 µg/mL (≈ 4.5 µM). The MIC ([5]; Pseudomonas aeruginosa, ATCC27853; read-out: MIC P. aeruginosa ATCC 27853) was greater than 8 µg/mL and the MIC ([6]; Escherichia coli, ATCC25922; read-out: MIC E. coli ATCC 25922) was 1 µg/mL (≈ 2.25 µM).
